In BindingDB's records for PubMed 28741798 (Daiichi Sankyo Co., Ltd):
pIC50: −log10 of the molar value.

Target: Histone-lysine N-methyltransferase KMT5B (Homo sapiens, UniProt Q4FZB7)
Assay: Inhibition of human SUV420H1 transcript variant 2 using Nucleosomes and [3H]SAM as substrate incubated for 30 mins to 1 hr by HotSpot kinase assay

Sequence of Histone-lysine N-methyltransferase KMT5B (Q4FZB7 whole entry): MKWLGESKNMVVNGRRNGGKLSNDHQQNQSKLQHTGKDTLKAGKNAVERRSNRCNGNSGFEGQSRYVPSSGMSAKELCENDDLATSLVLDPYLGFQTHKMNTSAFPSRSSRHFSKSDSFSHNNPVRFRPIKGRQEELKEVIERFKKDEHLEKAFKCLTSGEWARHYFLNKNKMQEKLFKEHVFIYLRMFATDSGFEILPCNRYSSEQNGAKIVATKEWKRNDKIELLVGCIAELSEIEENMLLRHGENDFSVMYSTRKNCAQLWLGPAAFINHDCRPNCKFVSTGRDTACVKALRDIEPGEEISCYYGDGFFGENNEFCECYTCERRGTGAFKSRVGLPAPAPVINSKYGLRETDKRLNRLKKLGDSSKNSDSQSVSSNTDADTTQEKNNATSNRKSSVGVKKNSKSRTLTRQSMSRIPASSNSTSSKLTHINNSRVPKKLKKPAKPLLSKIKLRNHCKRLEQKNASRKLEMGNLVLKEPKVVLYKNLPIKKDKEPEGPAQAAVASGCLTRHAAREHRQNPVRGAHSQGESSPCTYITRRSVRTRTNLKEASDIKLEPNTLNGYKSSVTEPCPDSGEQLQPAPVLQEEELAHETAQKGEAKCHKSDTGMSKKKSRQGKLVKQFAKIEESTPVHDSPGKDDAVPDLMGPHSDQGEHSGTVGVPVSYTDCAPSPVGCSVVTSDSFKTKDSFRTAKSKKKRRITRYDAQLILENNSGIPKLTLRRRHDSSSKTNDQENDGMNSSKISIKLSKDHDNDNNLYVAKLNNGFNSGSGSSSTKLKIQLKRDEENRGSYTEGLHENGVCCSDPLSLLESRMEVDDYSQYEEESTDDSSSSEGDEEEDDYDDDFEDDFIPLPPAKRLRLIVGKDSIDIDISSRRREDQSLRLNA

Compound: Cc1cc(C)c(CNC(=O)c2cc(Cl)c3c(c2C)O[C@@](C)([C@H]2CC[C@H](N(C)C)CC2)O3)c(=O)[nH]1 [(2R)-7-chloro-2-[trans-4-(dimethylamino)cyclohexyl]-N-[(4,6-dimethyl-2-oxo-1,2-dihydropyridin-3-yl)methyl]-2,4-dimethyl-1,3-benzodioxole-5-carboxamide (Valemetostat)]
- pIC50: 6.00
